Literature values, collected in patent US20220248734A1, “NUTRITIONAL HEALTH SUPPLEMENTS” (MAYO FOUNDATION FOR MEDICAL EDUCATION AND RESEARCH, priority 2019, published 2022).

Conditions: NAC received within 24 hours of head injury from a blast

For `CC(=O)N[C@@H](CS)C(=O)O` [NAC, N-acetyl cysteine], the side effects is given as “no reported side effects” and the symptom resolution is given as “significantly increases symptom resolution”.
